The results in this text go back to ChEMBL document CHEMBL6121059, “Small Molecule Modulators of AMP-Activated Protein Kinase (AMPK) Activity and Their Potential in Cancer Therapy” (J Med Chem, 2025).

Some results are limits rather than exact numbers.

Assay [1] addresses 5'-AMP-activated protein kinase catalytic subunit alpha-1 (Homo sapiens, UniProt Q13131). In words: Inhibition of AMPKalpha1 (unknown origin).
In assay [2] the target is Epithelial discoidin domain-containing receptor 1 (Homo sapiens) (UniProt Q08345). In words: Inhibition of DDR1 (unknown origin) at 10 uM relative to control.
Another assay is filed under the species Homo sapiens. In words: Inhibition of SRC (unknown origin) at 10 uM relative to control.
Assay [3] deals with T1, TGF-beta receptor type-1 (Homo sapiens) (UniProt P36897).
T1 sequence (whole entry): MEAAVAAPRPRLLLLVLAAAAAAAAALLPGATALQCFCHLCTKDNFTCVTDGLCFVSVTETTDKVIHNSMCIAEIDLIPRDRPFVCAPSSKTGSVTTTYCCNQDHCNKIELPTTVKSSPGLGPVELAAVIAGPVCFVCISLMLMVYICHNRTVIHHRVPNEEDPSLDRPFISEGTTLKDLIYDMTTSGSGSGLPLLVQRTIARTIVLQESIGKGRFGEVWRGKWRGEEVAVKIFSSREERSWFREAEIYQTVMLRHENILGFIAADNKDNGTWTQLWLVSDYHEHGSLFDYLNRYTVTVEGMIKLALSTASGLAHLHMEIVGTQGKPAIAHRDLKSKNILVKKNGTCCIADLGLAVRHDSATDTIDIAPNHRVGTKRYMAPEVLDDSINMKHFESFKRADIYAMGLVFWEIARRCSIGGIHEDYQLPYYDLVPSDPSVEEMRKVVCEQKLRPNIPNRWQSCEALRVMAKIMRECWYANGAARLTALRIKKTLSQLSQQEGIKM
In words: Inhibition of ALK5 (unknown origin) at 10 uM relative to control.

Assay [4] deals with Serine/threonine-protein kinase PAK 1 (Homo sapiens) (UniProt Q13153). Nature of the assay: Activation of PAK1 (unknown origin) at 10 uM relative to control.
Assay [5] has as its target Serine/threonine-protein kinase N1 (Homo sapiens) (UniProt Q16512). Nature of the assay: Activation of PRK1 (unknown origin) at 10 uM relative to control.
Assay [6] addresses Leucine-rich repeat serine/threonine-protein kinase 2 (Homo sapiens) (UniProt Q5S007). Nature of the assay: Activation of LRRK2 (unknown origin) at 10 uM relative to control.
Assay [7] is described as follows: Inhibition of full length GST-tagged human AMPKalpha2/beta1/gamma1 using HMRSAMSFAEPG biotinylated peptide as substrate in presence of 10 uM ATP by TR-FRET assay. For orientation: TR-FRET usually uses a lanthanide donor and a delayed reading to cut background.
In another assay the test system is VCaP. In words: Antiproliferative activity against human VCaP cells assessed as reduction in cell viability incubated for 3 days by cell-titer glo assay. Type of assay: functional, cell-based. The note with it: 72 h.
The next assay deals with LNCaP. In words: Inhibition of cellular AMPK in human LNCaP cells assessed as reduction in pACC1 levels in cell lysates by HTRF assay.
Another assay deals with IMR-32. In words: Inhibition of cellular AMPK in human IMR-32 cells assessed as reduction in pACC1 levels in cell lysates by HTRF assay.
The next assay deals with COLO 320. Nature of the assay: Inhibition of cellular AMPK in human COLO 320 cells assessed as reduction in pACC1 levels in cell lysates by HTRF assay.
Assay [8] can be described thus: Inhibition of full length GST-tagged human AMPKalpha2/beta1/gamma1 using HMRSAMSFAEPG biotinylated peptide as substrate in presence of 2 mM ATP by TR-FRET assay.
The nature of assay [9]: Binding affinity to AMPK (unknown origin) assessed as inhibition constant. More on the design: species or system Homo sapiens.
Assay [10] can be described thus: Inhibition of AMPK (unknown origin). Details: species or system Homo sapiens.

Sequence of Serine/threonine-protein kinase PAK 1 (Homo sapiens) (Q13153 whole entry, looked up): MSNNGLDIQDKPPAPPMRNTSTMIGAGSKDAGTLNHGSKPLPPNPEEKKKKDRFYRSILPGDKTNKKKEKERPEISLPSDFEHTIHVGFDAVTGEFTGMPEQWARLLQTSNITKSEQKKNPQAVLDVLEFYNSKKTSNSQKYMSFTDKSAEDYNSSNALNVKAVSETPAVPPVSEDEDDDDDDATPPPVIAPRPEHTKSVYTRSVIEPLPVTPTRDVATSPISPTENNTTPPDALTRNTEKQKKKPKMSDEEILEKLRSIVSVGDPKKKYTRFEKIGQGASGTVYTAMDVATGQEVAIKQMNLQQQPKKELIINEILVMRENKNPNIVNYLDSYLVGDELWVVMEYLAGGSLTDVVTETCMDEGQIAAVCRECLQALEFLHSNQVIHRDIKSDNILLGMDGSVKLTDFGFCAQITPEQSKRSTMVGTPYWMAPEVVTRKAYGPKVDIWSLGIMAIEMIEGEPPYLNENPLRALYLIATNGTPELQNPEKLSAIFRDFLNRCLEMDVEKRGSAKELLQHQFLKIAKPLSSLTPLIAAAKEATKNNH
Sequence of Serine/threonine-protein kinase N1 (Homo sapiens) (Q16512 2-942 limits assumed): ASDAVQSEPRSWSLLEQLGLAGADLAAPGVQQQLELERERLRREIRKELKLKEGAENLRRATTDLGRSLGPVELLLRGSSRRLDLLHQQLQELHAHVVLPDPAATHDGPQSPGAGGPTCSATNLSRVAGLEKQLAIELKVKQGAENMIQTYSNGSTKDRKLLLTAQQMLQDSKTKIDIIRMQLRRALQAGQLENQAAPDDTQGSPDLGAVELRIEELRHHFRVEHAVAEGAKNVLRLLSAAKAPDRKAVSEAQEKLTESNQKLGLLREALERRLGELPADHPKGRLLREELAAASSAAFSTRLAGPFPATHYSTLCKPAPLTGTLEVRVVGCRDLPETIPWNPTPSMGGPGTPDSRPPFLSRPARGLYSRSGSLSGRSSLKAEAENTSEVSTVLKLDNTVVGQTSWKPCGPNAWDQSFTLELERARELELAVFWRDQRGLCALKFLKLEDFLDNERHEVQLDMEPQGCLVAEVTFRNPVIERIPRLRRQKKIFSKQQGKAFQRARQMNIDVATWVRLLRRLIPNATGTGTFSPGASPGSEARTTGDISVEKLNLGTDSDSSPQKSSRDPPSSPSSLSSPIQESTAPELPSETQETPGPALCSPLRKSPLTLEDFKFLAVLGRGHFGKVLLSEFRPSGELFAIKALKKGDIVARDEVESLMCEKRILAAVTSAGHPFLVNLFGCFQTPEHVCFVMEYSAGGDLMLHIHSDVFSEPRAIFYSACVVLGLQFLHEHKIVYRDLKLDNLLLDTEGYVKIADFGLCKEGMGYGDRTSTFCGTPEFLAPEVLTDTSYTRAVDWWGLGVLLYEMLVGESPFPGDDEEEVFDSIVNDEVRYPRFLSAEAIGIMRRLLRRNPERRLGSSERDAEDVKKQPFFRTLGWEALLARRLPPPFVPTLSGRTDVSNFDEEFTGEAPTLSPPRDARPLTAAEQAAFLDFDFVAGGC
Sequence of 5'-AMP-activated protein kinase catalytic subunit alpha-1 (Q13131 whole entry, the tested form may be a part): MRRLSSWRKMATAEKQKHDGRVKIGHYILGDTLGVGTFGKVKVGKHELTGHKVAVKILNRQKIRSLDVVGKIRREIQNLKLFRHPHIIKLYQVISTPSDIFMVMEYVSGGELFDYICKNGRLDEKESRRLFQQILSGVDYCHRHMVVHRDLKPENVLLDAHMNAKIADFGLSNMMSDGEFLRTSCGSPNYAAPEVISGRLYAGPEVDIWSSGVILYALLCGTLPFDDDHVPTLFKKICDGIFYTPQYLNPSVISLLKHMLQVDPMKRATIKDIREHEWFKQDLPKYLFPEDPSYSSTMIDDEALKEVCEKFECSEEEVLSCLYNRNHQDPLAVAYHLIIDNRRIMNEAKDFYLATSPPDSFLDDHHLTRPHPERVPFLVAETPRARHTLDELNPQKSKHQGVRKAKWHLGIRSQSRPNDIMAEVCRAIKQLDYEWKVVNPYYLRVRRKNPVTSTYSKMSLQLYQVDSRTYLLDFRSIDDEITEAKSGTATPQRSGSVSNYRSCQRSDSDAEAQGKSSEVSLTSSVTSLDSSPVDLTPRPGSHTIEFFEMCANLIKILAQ
Sequence of Epithelial discoidin domain-containing receptor 1 (Homo sapiens) (Q08345 whole entry, the tested form may be a part): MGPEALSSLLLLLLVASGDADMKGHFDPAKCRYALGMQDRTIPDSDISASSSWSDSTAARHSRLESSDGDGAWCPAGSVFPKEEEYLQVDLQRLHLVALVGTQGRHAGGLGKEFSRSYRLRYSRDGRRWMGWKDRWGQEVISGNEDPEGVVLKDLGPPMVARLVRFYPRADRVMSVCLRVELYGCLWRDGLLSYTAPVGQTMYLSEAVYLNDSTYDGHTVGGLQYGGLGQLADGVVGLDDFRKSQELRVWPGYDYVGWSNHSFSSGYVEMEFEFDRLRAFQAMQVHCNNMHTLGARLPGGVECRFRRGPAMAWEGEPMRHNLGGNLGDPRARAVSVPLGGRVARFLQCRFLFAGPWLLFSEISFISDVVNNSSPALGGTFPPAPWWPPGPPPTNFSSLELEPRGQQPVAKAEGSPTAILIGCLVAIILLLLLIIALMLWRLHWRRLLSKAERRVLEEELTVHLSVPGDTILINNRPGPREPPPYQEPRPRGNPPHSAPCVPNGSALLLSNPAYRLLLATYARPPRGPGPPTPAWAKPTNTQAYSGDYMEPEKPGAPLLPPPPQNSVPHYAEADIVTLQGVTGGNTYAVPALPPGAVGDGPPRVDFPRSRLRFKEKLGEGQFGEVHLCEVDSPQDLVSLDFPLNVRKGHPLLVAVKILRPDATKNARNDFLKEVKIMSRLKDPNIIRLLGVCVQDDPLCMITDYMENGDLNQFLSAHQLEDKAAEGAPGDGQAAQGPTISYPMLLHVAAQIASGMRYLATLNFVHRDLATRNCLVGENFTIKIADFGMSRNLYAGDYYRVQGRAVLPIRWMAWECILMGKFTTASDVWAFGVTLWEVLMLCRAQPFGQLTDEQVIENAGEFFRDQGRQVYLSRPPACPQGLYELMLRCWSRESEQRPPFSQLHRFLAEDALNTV

One may read the IC50 as the concentration at which inhibition is half-maximal. In assay [1], `CNC(=O)c1ccccc1Oc1nc(Nc2cc(OC)c(OC)c(OC)c2)ncc1Br` had an IC50 of 400 nM.

One may read the inhibition as the change of the read-out against control, counted positive when it falls. On to `O=C(O)Cc1csc(Nc2ccc(C(F)(F)F)cc2)n1`, for which the inhibition (in assay [2]; in the assay listed under Homo sapiens; in [3]) was greater than 50% throughout. For the same compound, the activation in assay [4], in [5] and in assay [6] was 30% each time.

In the case of `CCc1ccccc1C(=O)Nc1n[nH]c2c(C)c(F)c(C3C(C#N)=C(C)N(C)C(C)=C3C#N)cc12` [BAY-3827], the IC50 in assay [7] was 1.4 nM; with VCaP, roughly 100 nM; with LNCaP, roughly 100 nM; in the assay with IMR-32, roughly 150 nM; in the assay on COLO 320, roughly 400 nM; in assay [8], 15 nM.

As a reminder, the Ki is the dissociation constant of the complex between target and ligand, obtained from inhibition or displacement. Regarding `c1cc(-c2cnn3cc(-c4ccc(OCCN5CCCCC5)cc4)cnc23)ccn1` [DORSOMORPHIN], in [9], the Ki came to 109 nM. Also, the IC50 in assay [10] came out at 2380 nM.

Consider `CCN(CC)CCNC(=O)c1c(C)[nH]c(/C=C2\C(=O)Nc3ccc(F)cc32)c1C` [SUNITINIB], for which 40 nM corresponded to half-maximal inhibition in assay [10] (IC50).
